# Where two headings read alike, the source gives them in different places.
# Columns and labels:
# A. baumannii A489 = assay: Preliminary MBC without and with sub-inhibitory polymyxin B (Example 4); format: cell-based, Acinetobacter baumannii; details: Acinetobacter baumannii, preliminary MBC
# E. faecalis 29212 = assay: MIC, standard panel of Gram-positive and Gram-negative strains (Example 2); format: cell-based, Enterococcus faecalis; details: Enterococcus faecalis, 29212; read-out: MIC E. faecalis 29212
# A. baumanii 19606 = assay: as above; format: cell-based; details: Acinetobacter baumannii
# Cytotoxicity (Example 7) = format: cell-based; details: human, HEPG2 V1 cells
# Description: The 4-oxoquinolizine compounds of the invention preferably have a low cytotoxicity against human cells. […].
# Cytotoxicity was determined for the instant 4-oxoquinolizine compounds which show low cytotoxicity. (see Table 17 following). […]
# E. faecium 19434 = assay: MIC, standard panel of Gram-positive and Gram-negative strains (Example 2); format: cell-based; details: Enterococcus faecium
# A. baumannii J2 = assay: Preliminary MBC without and with sub-inhibitory polymyxin B (Example 4); format: cell-based, Acinetobacter baumannii; details: Acinetobacter baumannii, preliminary MBC
# E. cloacae 13047 = assay: MIC, standard panel of Gram-positive and Gram-negative strains (Example 2); format: cell-based, Enterobacter cloacae; details: Enterobacter cloacae, 13047; read-out: MIC E. cloacae 13047
# [1] = system: strains of A. baumannii and one strain of Acinetobacter sp.; assay: MIC without polymyxin B, panel of Acinetobacter strains (Example 4); format: cell-based; details: Acinetobacter baumannii, ATCC19606, read-out: MIC range without PB Oct. 1, 2006 n = 8, 1st experiment; resistant strains, ATCC 19606, A329, A390 and A473 not taken
# [2] = system: Acinetobacter sp. (H064200250); assay: Preliminary MBC without and with sub-inhibitory polymyxin B (Example 4); format: cell-based; details: Acinetobacter, preliminary MBC
# Outline: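 Bactericidal endpoint scored visually on plates incubated at 37° C (18-20 hours): the lowest concentration where growth fell about 90% versus the positive control, generally leaving one colony or none.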
# A. baumannii A329 = assay: as above; format: cell-based, Acinetobacter baumannii; details: Acinetobacter baumannii, A329, A. baumannii A329, +0.06 μg/ml PB, 2nd experiment, read-out: MBC
# S. aureus 101 = assay: MIC, standard panel of Gram-positive and Gram-negative strains (Example 2); format: cell-based; details: Staphylococcus aureus
compound,measurement,setting,value
"Cc1c(-c2ccc(N)cc2)ccn2c(=O)c(C(=O)O)cc(C3CC3)c12 [Compound 8, 8-(4-amino-phenyl)-1-cyclopropyl-9-methyl-4-oxo-quinolizine-3-carboxylic acid]",MBC,"A. baumannii A489; A489, A. baumannii A489, +[…] PB, 2nd experiment, read-out: MBC",≤ 0.03 µg/mL
same,MBC,"A. baumannii A489; A489, read-out: MBC +[…] PB, A. baumannii A489, +[…] polymyxin B, 1st experiment",≤ 0.03 µg/mL
same,MIC,E. faecalis 29212,0.03 µg/mL
same,MIC,A. baumanii 19606,0.125 µg/mL
same,IC50,Cytotoxicity (Example 7),90 µM
same,MIC,E. faecium 19434,0.5 µg/mL
same,MBC,"A. baumannii J2; J2, A. baumannii J2, +[…] PB, 2nd experiment, read-out: MBC",≤ 0.03 µg/mL
same,MBC,"A. baumannii J2; J2, read-out: MBC +[…] PB, A. baumannii J2, +[…] polymyxin B, 1st experiment",0.125 µg/mL
same,MIC,E. cloacae 13047,0.25 µg/mL
same,MIC,[1],2 to 32 µg/mL
same,MBC,"[2]; Acinetobacter spp. H064200250 (OXA51), +[…] PB, 2nd experiment, read-out: MBC",0.125 µg/mL
same,MBC,"[2]; read-out: MBC +[…] PB, Acinetobacter spp. H064200250, +[…] polymyxin B, 1st experiment",0.5 µg/mL
same,MBC,A. baumannii A329,2 µg/mL
same,MIC,S. aureus 101,0.5 µg/mL

# From US20190105367A1, “ANTIMICROBIAL 4-OXOQUINOLIZINES” (Emergent Product Development Gaithersburg Inc., priority 2011, published 2019)
